Results from patent publication EP1996603B1, “LIPID A ANTAGONISTS WITH ANTI-SEPTIC SHOCK, ANTI-INFLAMMATORY, ANTI-ISCHEMIA AND ANALGESIC ACTIVITY” (Università Degli Studi Di Milano - Bicocca, priority 2006, dated 2007).
“Also recorded” adds a separate entry of the source.

Experiments:
TLR2 = test: TNFα production after stimulation with Pam3Cys-SK4 (TLR2 selectivity); format: cell-based, Mouse; conditions: stimulation with Pam3Cys-SK4, specific for TLR2
Experimental: (§1) • Figure 1. Antagonistic activity of compounds Ia, Ic and Id on lipid A-stimulated cytokine production in BMDC, BMØ and D1 cells. TNFα production was measured in the supernatants 24 h later. From the right: lipid A (0.5µM), cells treated with lipid A alone; DMSO: cells incubated in the presence of complete medium plus DMSO; inhibitor 50 µM, cells treated only with monosaccharides Ia, Ic and Id; other columns, lipid A + compounds […] at increasing doses. The data represent means and standard deviations of triplicate wells. This is a representative of three independent experiments. *, p < 0.05; **, p < 0.01; ***, p< 0.001. • Figure 2. TLR-4 selectivity of monosaccharide Id. […] IL-1β was measured in the supernatants by ELISA. […] Lower panels, TNFα production measured by ELISA 24 h after stimulation with CpG (selective for TLR-9) or PAM3Cys-SK4 (selective for TLR-2) in the presence of compound Id. […] The cells were then analyzed by FACS for the presence of annexin V and propidium iodide (PI) double positive cells. […] NF-kB activation was evaluated in the nuclear extract 2 h later and expressed as optical density (OD) at 450 nm. […] Effect of different doses of compound Id on carrageenan induced edema in mice measured 4h after the exposure and expressed as difference between the paw volume of treated paw versus the contralateral paw. […]

BMΦ and D1 cells = test: Lipid A-induced IL-1β production (ELISA); format: cell-based, Mouse; conditions: lipid A (0.5 µM) stimulation, effect proportional to concentration
Experimental: as §1

DC and MΦ = test: Cytotoxicity: PI test and annexin V test by FACS; format: cell-based; conditions: 10 to 100 µM, 48 h incubation, 24 h in Figure 3 legend
Experimental: as §1

BMΦ, BMDC and D1 cells = test: Lipid A-induced TNFα production in macrophages and dendritic cells (ELISA); format: cell-based, Mouse
Experimental: BMΦ and DC were derived from bone marrow cells and divided in two separate cultures. For DC preparation bone marrow cells were cultured in complete IMDM supplemented with 10% supernatant of GM-CSF-transduced B16 tumor cells [R. Soiffer, T. Lynch, M. Mihm, K. Jung, C. Rhuda, J. C. Schmollinger, F. S. Hodi, L. Liebster, P. Lam, S. Mentzer, S. Singer, K. K. Tanabe, A. B. Cosimi, R. Duda, A. Sober, A. Bhan, J. Daley, D. Neuberg, G. Parry, J. Rokovich, L. Richards, J. Drayer, A. Berns, S. Clift, L. K. Cohen, R. C. Mulligan, G. Dranoff, Proc. Natl. Acad. Sci. U S A. 1998, 95(22), 13141-13146]. Fresh medium was added every 2 d. After 7-10 d of culture, cells were analyzed for CD11c expression and used in assays when 90% were CD11c positive. For BMΦ preparation bone marrow cells were cultured in complete IMDM supplemented with 10% supernatant of M-CSF-transduced NIH3T3 cells. Also in this case, fresh medium was added every 2 d. After 7-10 d of culture, cells were analyzed for Mac1 expression and used in assays when at least 90% were Mac1 positive. D1 cells were cultured in complete IMDM supplemented with 10% supernatant of GM-CSF-transduced B16 tumor cells.
D1 cells, BMDC and MΦ were plated in 48 well plates at a concentration of 200000 cells/well in 200µL of medium. One or two hours after plating they were treated with different amounts of compounds Ic and Id for 30 min and then stimulated with Lipid A from Escherichia coli (F583, Rd mutant Sigma, 0.5µM) for 18 h.
Given the pivotal role of early-activated DC and MΦ in directing inflammatory reactions, compounds Ia, Ic and Id were tested for their ability to antagonize the stimulatory activity of lipid A on bone marrow derived macrophages (BMΦ) and DC (BMDC) by interfering with their capacity to induce TNFα production. As source of DC, D1 cells, a long term growth factor (GM-CSF)-dependent DC line [C. Winzler et al. J. Exp. Med. 1997, 185, 317-327] were also used. BMΦ, BMDC and D1 cells were stimulated with lipid A (0.5 µM) after a pre-exposure to compounds Ia, Ic and Id and the amount of TNFα released in the supernatant was measured by ELISA.

With `CCCCCCCCCCCCCCO[C@H]1[C@@H](OC)O[C@H](C[N+](C)(C)C2CCCC2)[C@@H](O)[C@@H]1OCCCCCCCCCCCCCC` [Compound Id, methyl 6-deoxy-6-N,N',N"-dimethylcyclopentylammonium-2,3-di-O-tetradecyl-α-D-glucopyranoside] the TNFα production (TLR2) was “not inhibited”, the IL-1β synthesis (BMΦ and D1 cells) was “inhibited” and the “percent of dead cells” value (DC and MΦ) was “does not induce death of MΦ and DC; also recorded: Neither DC nor MΦ showed an appreciable percent of dead cells”. The “direct inflammatory function (stimulating cytokines production)” value (BMΦ, BMDC and D1 cells; cells treated with compound alone, without lipid A) was “did not show any direct inflammatory function”, the “relative potency as inhibitor of lipid A” value (BMΦ, BMDC and D1 cells; comparison between compounds Ia, Ic and Id) was “more potent than Ic” and the TNFα production (BMΦ, BMDC and D1 cells; stimulation with lipid A (0.5 µM) after pre-exposure to compound, TNFα released in the supernatant measured by ELISA, BMΦ, BMDC and D1 cells) was “interfered with lipid A's action in a dose-dependent manner; also recorded: lower activity; also recorded: inhibited”.
